Reference: patent publication US9107830B2, “Inhibitors of crystallization in a solid dispersion” (ABBVIE, INC., priority 1999, dated 2015)
“Also recorded” adds a separate entry of the source.

Legend:
[1] = X-ray powder diffraction of freshly prepared solid dispersions (physical form of drug in matrix); assay type: physicochemical
Procedure: (§1) An X-ray powder diffraction (XPD) pattern was obtained with a Scintag® XDS 2000 θ/θ diffraction system equipped with a 2 kW normal focus X-ray tube and a liquid nitrogen cooled germanium solid state detector.
The samples were prepared by dissolving ABT-538 in a small volume of 200 proof ethanol in a 250 ml round bottom flask. The flask was vortexed and then placed in a water bath maintained at 75° C. The PEG 8000 was added to the hot alcohol solution with continual swirling until the PEG melted. The flask was then attached to a rotary evaporator, immersed in the water bath (75° C.) under vacuum for 15 minutes to remove the ethanol. After the majority of ethanol had evaporated, the flask was immersed in an ice bath for 15 minutes. The contents of the flask were then vacuum dried at room temperature overnight to remove residual alcohol. The dispersion was removed from the flask, gently ground, and sized to 40-100 mesh size. The drug loads used for these dispersions were 10, 20 and 30% w/w.
The solid dispersion of 30% ABT-538 in 95:5 PEG8000:PVP was prepared by dissolving the ABT-538 and PVP 17 PF in a small volume of 200 proof ethanol in a 250 ml round bottom flask. The remainder of the process was as described above. A 30% ABT-538 dispersion in 85:15 PEG8000:PVP was also prepared similarly as were dispersions of 10 or 20% PVP 17 PF in PEG 8000 without drug.
(§2) Both fenofibrate and PEG 8000 were sized to 40-100 mesh prior to mixing with a spatula on weighing paper. The mixture was then added to a 25 ml beaker and heated to 85° C. in a water bath until the all the material had melted. The molten solution was then poured onto a chilled X-ray sample holder to rapidly solidify the solution. The solid sample was immediately used to monitor the crystallization rate via X-ray powder diffraction.
Fenofibrate (40-100 mesh) was added to the 90:10 PEG 8000:PVP control dispersion (see above) which was also sized to 40-100 mesh and mixed with spatula on a piece of weighing paper. The mixture was then processed as described above for the 15% fenofibrate dispersion in PEG 8000.
Both griseofulvin and PEG 8000 were sized to 40-100 mesh prior to mixing on a weighing paper with a spatula. The sample was then added to an 4 ml stainless steel vessel which was sealed under a N2 atmosphere. The vessel was then immersed into an oil bath maintained at 180° C. […]
A similar plot is shown in FIG. 2 with PVP incorporated into the matrix. […] Crystallization kinetics were determined by heating the samples to 85° C., holding them isothermally for predetermined times followed by heating through the melting transition temperature of ABT-538. The heats of fusion were determined and ratioed against the heat of fusion of the drug melting in the physical mixture, giving the fraction crystallized. […]

[2] = DSC crystallization kinetics, isothermal hold at 85° C.; assay type: physicochemical; details: PVP in matrix versus PEG
Procedure: DSC measurements were made using a Mettler DSC 30 unit. Samples (4-7 mg) were sealed in standard 40 μl aluminum crucibles with a single hole punched in the lids. An empty crucible of the same type was used as a reference.
A similar plot is shown in FIG. 2 with PVP incorporated into the matrix. […] A similar plot is seen in FIG. 4 for the PEG:PVP dispersion. The endotherm associated with drug melting can clearly be discerned from the other components. Thus, it is possible to follow the kinetics of ABT-538 crystallization via DSC measurements. Crystallization kinetics were determined by heating the samples to 85° C., holding them isothermally for predetermined times followed by heating through the melting transition temperature of ABT-538. The heats of fusion were determined and ratioed against the heat of fusion of the drug melting in the physical mixture, giving the fraction crystallized.

[3] = XPD monitoring for crystalline drug in samples held at 50° C.; assay type: physicochemical
Procedure: An X-ray powder diffraction (XPD) pattern was obtained with a Scintag® XDS 2000 θ/θ diffraction system equipped with a 2 kW normal focus X-ray tube and a liquid nitrogen cooled germanium solid state detector. An additional study was performed with a dispersion containing 15% PVP. The samples were held at 50° C. (above the Tg of ABT-538) and X-ray diffraction patterns were measured over time to monitor for the appearance of crystalline ABT-538.

[4] = Isothermal calorimetry (TAM) of recrystallization at 40° C.; assay type: physicochemical
Procedure: The recrystallization reactions of 30% ABT-538 in PEG or PEG:PVP (95:5) solid dispersions were monitored via isothermal calorimetry (Thermometric 2277 Calorimeter) at 40° C. Since crystallization is an exothermic process, a positive power output indicates crystallization. The magnitude of the power output at any time is proportional to the rate of crystallization. XPD was used to confirm crystallization.
The crystallization rate was also followed via the heat associated with crystallization of ABT-538 using a isothermal calorimetry. The shapes and magnitudes of the crystallization peaks in FIG. 6 indicate that ABT-538 crystallizes more readily in the PEG matrix as compared to the PEG:PVP matrix. This stabilizing effect of PVP is also reflected in the times required for complete crystallization (time to reach baseline) which were <10 hours for PEG and >30 hours for PEG:PVP (95:5).

[5] = Aungst et al., Int. J. Pharm. 156, 79 (1997); cited from earlier work
[6] = XPD rate of crystallization upon storage at 25° C.; assay type: physicochemical
Procedure: as §1, §2
The figure illustrates that the fenofibrate is X-ray-amorphous within the matrix. Again, the fenofibrate is amorphous. Upon storage at 25° C., the fenofibrate begins to crystallize in the PEG 8000 matrix within 1 hour (FIG. 10). Additional crystallization follows up to 12 hours, when the experiment was terminated.
Similar XPD patterns for the griseofulvin dispersion in PEG 8000 and 80:20 PEG 8000:PVP matrices are shown in FIGS. 12 and 13, respectively. In both instances, amorphous griseofulvin is isolated within the respective matrices. […] However, in the presence of PVP (FIG. 15), crystallization is not observed even after 15 hours under the same conditions.

[7] = PEG 8000:PVP matrix, 30% ABT-538, 15% fenofibrate (90:10) or 15% griseofulvin (80:20)
[8] = PEG 8000 matrix, 30% ABT-538, 15% fenofibrate or 15% griseofulvin

| effect of PVP within the matrix on crystallization rate (percent crystallized from heat of fusion) [2] | effect of PVP within the matrix on crystallization rate (percent crystallized from heat of fusion) ([2]; listed as ritonavir) | time at which crystalline drug is detected (XPD) ([3]; PEG8000 alone, detected at this time and before) [h] | time held without crystalline ABT-538 present (XPD) ([3]; dispersion containing 15% PVP) [h] | time required for complete crystallization (time to reach baseline) ([4]; 30% ABT-538 in PEG solid dispersion) [h] | time required for complete crystallization (time to reach baseline) ([4]; 30% ABT-538 in PEG:PVP (95:5) solid dispersion) [h] | time at which drug begins to crystallize (XPD) ([6]; 15% drug in PEG 8000 matrix, storage at 25° C.) | time without crystallization observed (XPD) ([6]; 15% griseofulvin in 80:20 PEG 8000:PVP, 25° C.) [h] | SMILES | physical form of drug in the solid dispersion by XPD [1, 7] | physical form of drug in the solid dispersion by XPD [1, 8] | effect of PEG solid dispersion formulation on bioavailability [5] |
| --- | --- | --- | --- | --- | --- | --- | --- | --- | --- | --- | --- |
| suppresses the crystallization rate | slower | ≤ 233 | > 272 | < 10 | > 30 |  |  | CC(C)c1nc(CN(C)C(=O)NC(C(=O)NC(Cc2ccccc2)CC(O)C(Cc2ccccc2)NC(=O)OCc2cncs2)C(C)C)cs1 [ABT-538, (2S,3S,5S)-5-(N—(N—((N-methyl-N-((2-isopropyl-4-thiazolyl)-methyl)amino)carbonyl)-L-valinyl)amino-2-(N-((5-thiazolyl)methoxy-carbonyl)-amino)-1,6-diphenyl-3-hydroxyhexane] | Amorphous; also recorded: not crystalline | Amorphous; also recorded: not crystalline |  |
|  |  |  |  |  |  |  |  | O=C1N(Cc2ccc(CO)cc2)[C@H](Cc2ccccc2)[C@H](O)[C@@H](O)[C@@H](Cc2ccccc2)N1Cc1ccc(CO)cc1 [DMP 323] |  |  | unable to improve the bioavailability |
|  |  |  |  |  |  | one | > 15 | COC1=CC(=O)C[C@@H](C)[C@]12Oc1c(Cl)c(OC)cc(OC)c1C2=O [griseofulvin] | amorphous | amorphous |  |
